According to patent US20150192564A1, “PROFILING REACTIVE OXYGEN, NITROGEN AND HALOGEN SPECIES” (ENZO LIFE SCIENCES, INC., C/O ENZO BIOCHEM, INC, priority 2008, published 2015):
Read-outs that look alike come from different tables or passages of the source.

Experiments:
HeLa cells [1] = assay: ROS/RNS production in HeLa cells, triple staining DAQ/DCFDA/HE, wide-field fluorescence microscopy (Example 1); assay type: cell-based, Human; conditions: for effect of pretreatment on green fluorescence upon combination treatment with L-arginine and pyocyanin: HeLa cells pretreated, ebselen 20 μM, 3D; for effect of pretreatment on ROS production induced by pyocyanin: NAG 5 mM, 3C
Procedure: Human cervical adenocarcinoma epithelial cell line HeLa was obtained from ATCC (ATTC, Manassas, Va.) and was routinely cultured in Dulbecco's modified eagle medium with low glucose (Sigma-Aldrich, St. Louis, Mo.), supplemented with 10% fetal bovine serum heat inactivated (ATCC) and 100 U/ml penicillin, […] streptomycin (Sigma). Cell cultures were maintained in an incubator at 37° C., with 5% CO2 atmosphere. Three ROS/RNS fluorescent probes were dissolved in anhydrous DMF at the following concentrations: DAQ-20 mM (a 400× stock solution), DCFDA-5 mM (a 5000× stock solutions), DHE-5 mM (a 5000× stock solution). Anhydrous organic solvents should be used with DMF being the first choice, since DMSO is a hydroxyl radical scavenger and its presence may affect ROS/RNS production in cellular systems. Stock solutions of the dyes were aliquoted and stored at −20° C. The day before the experiment, HeLa cells were seeded on multiwell microscope slides (Gel-Line™ Brand, Portsmouth, N.H.) at a density of 2×10^4 cells per well. On the next day, the cells were loaded with 50 μM of DAQ, 1 μM of DCFDA and HE (all dilutions were made in growth medium) for 2 h, 37° C. Then the medium containing dyes was removed, the cells were briefly washed with PBS and induced with L-arginine (1 mM), pyocyanin (100 μM) or their combination for 20 min. […] Pretreated cells were induced as described earlier, overlaid with a cover slip and observed under fluorescence microscope.

HeLa cells [2] = assay: Profiling of ROS induced in HeLa cells by different ROS inducers, DCFDA/HE staining, wide-field fluorescence microscopy (Example 2); assay type: cell-based, Human; conditions: for ROS types induced (green DCF and orange HE fluorescence): HeLa cells, inducer 1 h 37° C., 0.5 mM pyrogallol, 0.1 mM pyocyanin, 0.1 mM TBHP, FIG. 4A
Procedure: For purposes of simplifying the assay description, this example was carried out with only two indicator probes, though analogous procedures were employed as in the case where three fluorophores were utilized. Human cervical carcinoma cell line HeLa was cultured as described in Example 1. The day before the experiment, the cells were seeded in multi-well microscope slides (Gel-Line™, Portsmouth, N.H.) at a density of 2×10^4 cells per well. […] After a brief wash with PBS, the cells were stained with 1 l-1M of DGFDA and HE in culture medium for 30 min, 37° C., washed twice with PBS, overlaid with a cover slip and observed under the fluorescent microscope, using green and orange filters described in the Table 2 (FIG. 4A). To perform specific profiling of ROS/RNS, parallel samples of HeLa cells were pretreated for 30 min with 5 mM NAG (general ROS scavenger, FIG. 4B), 5 mM Tiron (specific superoxide scavenger, FIG. 4C), 10 mM pyruvate (specific peroxide scavenger, FIG. 4D). Pretreated cells were induced as described, overlaid with a cover slip and observed under fluorescent microscope using the same set of filters.

HeLa cells [3] = assay: Kinetic changes in levels of NO and ROS in HeLa cells, wide-field fluorescence microscopy (Example 3); assay type: cell-based, Human; conditions: 1 mM L-arginine; for NO levels (DAQ signal) / ROS production (FIGS. 5B and 5C): 10-60 min treatment; for NO levels (DAQ signal): 1 μM A23187, 0.2 mM antimycin A, 0.1 mM pyocyanin or combination, FIG. 5A; for ROS production (FIGS. 5B and 5C): 0.2 mM antimycin A, 0.1 mM pyocyanin; for time after treatment at which DAQ signal (NO) was detectable: 1 μM A23187, FIG. 5A
Procedure: HeLa cells were cultured and plated as described in Example 1. On the day of the experiment, cells were loaded with 50 μM of DAQ, 1 l-1M of DCFDA and HE for 2 h, 37° C. and induced with different ROS and NO inducers (1 μM of A23187, 0.2 mM of antimycin A, 1 mM of L-arginine, 0.1 mM of pyocyanin or combination of L-arginine and pyocyanin) at 37° C. Samples for fluorescent microscopy were prepared after 10, 20, 30, 45 and 60 min of treatment as described in Example 1 and analyzed using an Olympus wide field fluorescent microscope (set of filters as described in the Table 2).

HeLa cells [4] = assay: Multiplexed ROS/RNS detection in HeLa cells by flow cytometry (Example 4); assay type: cell-based, Human; conditions: for NO production (fluorescence of oxidized DAQ product in FL4): one hour treatment; for NO production (fluorescence of oxidized DAQ product in FL4) / effect of pretreatment on L-arginine-induced FL4 (NO) signal: FIG. 6 top panel
Procedure: HeLa cells were cultured as described in Example 1. The day before the experiment, the cells were seeded in 6-well tissue culture dishes at a density of 5×10^5 cells per well. On the day of the experiment, the cells were loaded with 50 μM of DAQ, 1 l-1M of DCFDA and HE (solution in culture medium) for 2 h, 37° C. and induced with L-arginine, pyocyanin or their combination, as described in Example 1. To confirm specificity and selectivity of the staining, parallel samples were treated with NAG (general ROC inhibitor) and cPTIO (general NO scavenger and NOS inhibitor). After one hour treatment, the cells were washed with PBS, trypsinized and resuspended in 0.5 ml of PBS. After resuspension, the cells were immediately analyzed by flow cytometry using FAGS Calibur instrument (or any benchtop cytometer equipped with blue and red lasers could be used). Green fluorescence of oxidized DCF was detected in the FL1 channel (excitation with 488 nm blue laser, emission detection with 530/30 BP filter), red fluorescence of DHE was detected in the FL2 channel (excitation with 488 nm blue laser, emission detection with 585/42 BP filter). Fluorescence of oxidized DAQ product was detected in the FL4 channel (excitation with 635 nm red laser, emission detection with 670 LP filter). There was substantial overlap between the oxidized dye spectra; therefore, compensation was required. For compensation purposes, singly stained samples were prepared and compensation was performed using standard protocols.

[5] = ROS-generating system: •OH; cited from earlier work
[6] = ROS-generating system: ONOO−; cited from earlier work
[7] = ROS-generating system: •OCl; cited from earlier work
[8] = ROS-generating system: 1O2; cited from earlier work
[9] = ROS-generating system: O2•−; cited from earlier work
[10] = ROS-generating system: H2O2; cited from earlier work
[11] = ROS-generating system: NO; cited from earlier work
[12] = ROS-generating system: ROO−; cited from earlier work
[13] = neutral pH and extremes of pH; cited from earlier work
[14] = cited from earlier work
cells = conditions: cited from earlier work
[15] = HeLa cells induced 20 min, L-arginine 1 mM, pyocyanin 100 μM or combination, FIG. 3A
[16] = FIG. 6 middle and bottom panels
[17] = HeLa cells pretreated with 20 μM ebselen, FIG. 3D
[18] = HeLa cells pretreated 1 h, cPTIO 20 μM, FIG. 3B

Cn1c2cccc(=O)c-2nc2ccccc21 [pyocyanin]
NO production (oxidized DAQ fluorescence, Cy5 filter) (HeLa cells [1]; [15]): did not affect NO production | superoxide production (HE fluorescence, orange filter) (HeLa cells [1]; [15]): induced superoxide production | ROS types induced (green DCF and orange HE fluorescence) (HeLa cells [2]): majority of superoxide | NO levels (DAQ signal) (HeLa cells [3]): did not induce any DAQ-detectable signal | ROS production (FIGS. 5B and 5C) (HeLa cells [3]): early induction of ROS | ROS production detected in FL1 and FL2 channels (HeLa cells [4]; [16]): induced significant ROS production | NO production (fluorescence of oxidized DAQ product in FL4) (HeLa cells [4]): did not induce significant NO production

O=c1c2ccccc2[se]n1-c1ccccc1 [ebselen, 2-phenyl-1,2-benzisoselenazol-3[2H]-one]
effect of pretreatment on levels of NO or superoxide in the combination treated sample (HeLa cells [1]; [17]): did not restore the original levels of NO or superoxide | effect of pretreatment on peroxynitrite (HeLa cells [1]; [17]): inactivated peroxynitrite upon its production | effect of pretreatment on green fluorescence upon combination treatment with L-arginine and pyocyanin (HeLa cells [1]; cPTIO 20 μM, FIG. 3B): decreased significantly

CC(=O)N[C@@H](CS)C(=O)O [NAG, N-acetyl-L-cysteine]
effect of pretreatment on ROS production induced by pyocyanin (HeLa cells [1]; [18]): attenuated ROS induction | general levels of NO production in pretreated cells (HeLa cells [1]; HeLa cells pretreated with 5 mM NAG, FIG. 3C): increased | effect of pretreatment on production of ROS types (HeLa cells [2]; HeLa cells pretreated 30 min with 5 mM NAG, then inducers, FIG. 4B): abolished the production of all ROS types | effect of pretreatment on pyocyanin-induced ROS production (FL1 and FL2) (HeLa cells [4]; [16]): blocked | effect of pretreatment on L-arginine-induced FL4 (NO) signal (HeLa cells [4]): not

O=C1OC2(c3cc(Cl)c(O)cc3Oc3cc(O)c(Cl)cc32)c2ccccc21 [OCFH, 2′,7′-dichlorofluorescein]
Fluorescence increase [5]: 7400 | Fluorescence increase [6]: 6600 | Fluorescence increase [7]: 86 | Fluorescence increase [8]: 26 | Fluorescence increase [9]: 67 | Fluorescence increase [10]: 190 | Fluorescence increase [11]: 150 | Fluorescence increase [12]: 710

O=C(O)c1ccccc1-c1c2ccc(=O)cc-2oc2cc(Oc3ccc(O)cc3)ccc12 [HPF, 2-[6-(4′-hydroxyl)phenoxy-3H-xanthen-3-on-9-yl]benzoic acid]
Fluorescence increase [5]: 730 | Fluorescence increase [6]: 120 | Fluorescence increase [7]: 6 | Fluorescence increase [8]: 5 | Fluorescence increase [9]: 8 | Fluorescence increase [10]: 2 | Fluorescence increase [11]: 6 | Fluorescence increase [12]: 17

Nc1ccc(Oc2ccc3c(-c4ccccc4C(=O)O)c4ccc(=O)cc-4oc3c2)cc1 [APF, 2-[6-(4′-amino)phenoxy-3H-xanthen-3-on-9-yl]benzoic acid]
Fluorescence increase [5]: 1200 | Fluorescence increase [6]: 560 | Fluorescence increase [7]: 3600 | Fluorescence increase [8]: 9 | Fluorescence increase [9]: 6 | Fluorescence increase [10]: 1 | Fluorescence increase [11]: 1 | Fluorescence increase [12]: 2

Nc1ccc2c(c1N)C(=O)c1ccccc1C2=O [DAQ, 1,2-diaminoanthraquinone]
pH stability [13]: stable at neutral pH, as well as at extremes of pH

CC(C)(C)OO [TBHP, tert-butyl hydroperoxide]
ROS types induced (green DCF and orange HE fluorescence) (HeLa cells [2]): majority of peroxide/hydroxyl radicals/peroxynitrite

N=C(N)NCCC[C@H](N)C(=O)O [L-arginine]
NO production (oxidized DAQ fluorescence, Cy5 filter) (HeLa cells [1]; [15]): extensive NO production | time after treatment at which DAQ signal (NO) was detectable (HeLa cells [3]): 10 min | NO levels (DAQ signal) (HeLa cells [3]): high levels of NO production | ROS production (FIGS. 5B and 5C) (HeLa cells [3]): No significant ROS production | NO production (fluorescence of oxidized DAQ product in FL4) (HeLa cells [4]): induced NO production

CNc1ccc2oc(C[C@H]3O[C@@]4(CC[C@H]3C)O[C@H]([C@H](C)C(=O)c3ccc[nH]3)[C@H](C)C[C@H]4C)nc2c1C(=O)O [A23187]
time after treatment at which DAQ signal (NO) was detectable (HeLa cells [3]): 20 min

Nc1cc2ccccc2cc1N [DAN, 2,3-diamino naphthalene]
solubility in aqueous solution [14]: poorly soluble | cellular toxicity (cells): high cellular toxicity

CC1(C)N([O])C(c2ccc(C(=O)[O-])cc2)=[N+]([O-])C1(C)C.[K+] [cPTIO, 2-(4-carboxyphenyl)-4,5-dihydro-4,4,5,5-tetramethyl-1H-imidazolyl-1-oxy-3-oxide, potassium salt]
effect of pretreatment on ROS production induced by pyocyanin (HeLa cells [1]; [18]): did not affect ROS production | effect of pretreatment on NO production upon L-arginine induction (HeLa cells [1]; [18]): completely abrogated NO production | effect of pretreatment on green fluorescence upon combination treatment with L-arginine and pyocyanin (HeLa cells [1]; cPTIO 20 μM, FIG. 3B): green fluorescence decreased | effect of pretreatment on L-arginine-induced FL4 (NO) signal (HeLa cells [4]): blocked

Oc1cccc(O)c1O [pyrogallol]
ROS types induced (green DCF and orange HE fluorescence) (HeLa cells [2]): induced mostly superoxide production

O=S(=O)(O)c1cc(O)c(O)c(S(=O)(=O)O)c1 [Tiron]
effect of pretreatment on green fluorescence in pyrogallol-treated cells (HeLa cells [2]; HeLa cells pretreated 30 min, 5 mM Tiron or 10 mM pyruvate, FIG. 4C, 4D): green fluorescence was increased | effect of pretreatment on orange fluorescence (superoxide) (HeLa cells [2]; HeLa cells pretreated 30 min with 5 mM Tiron, then inducers, FIG. 4C): attenuated only orange fluorescence in all treated cells

antimycin A
NO levels (DAQ signal) (HeLa cells [3]): did not induce any DAQ-detectable signal | ROS production (FIGS. 5B and 5C) (HeLa cells [3]): early induction of ROS
